pEC50, pIC50: −log10 of the molar value. Read-outs that look alike come from different tables or passages of the source.
How the values were obtained:
[1] = target: MCL-1/Bim interaction (recombinant human MCL-1 protein, residues 171-327; biotinylated human Bim peptide, residues 51-76) (Homo sapiens (Human), UniProt Q07820); assay: MCL-1/Bim Binding AlphaLISA Assay; conditions: 0.0625 nM 6xHis-Mcl-1 (171-327), 0.0625 nM biotinylated-Bim peptide
Method in brief: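 Protein 0.0625 nM + cpd, 1 h; add biotin-Bim 0.0625 nM, 2 h; acceptor beads 1 h; donor beads 1 h; AlphaScreen read. Buffer 20 mM Hepes pH 7.5, 150 mM NaCl, 1 mM DTT.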

SKBR3 cells = assay: SKBR3 Cell Viability Assay (CellTiter Glo); format: cell-based; conditions: CellTiter Glo luminescence, read-out: MCL-1 CV SKBR3 EC50
Method in brief: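 Viability read as CellTiter Glo luminescence after 72 h of compound exposure at 37° C./5% CO2, using 6,000 SKBR3 cells per well in McCoy 5A with 10% FBS. Percent inhibition scaled between DMSO wells and 10 μM puromycin wells.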

MCL-1/Bim interaction (recombinant human MCL-1 protein, residues 171-327; biotinylated human Bim peptide, residues 51-76), sequence (Q07820 171-327): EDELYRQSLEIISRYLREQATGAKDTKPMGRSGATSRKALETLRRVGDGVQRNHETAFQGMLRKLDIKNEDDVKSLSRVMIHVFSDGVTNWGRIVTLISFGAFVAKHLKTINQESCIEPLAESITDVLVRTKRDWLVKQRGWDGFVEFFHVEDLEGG

SMILES	pIC50 [1]	pEC50 (SKBR3 cells; Homo sapiens, SK-BR-3, 72 h)	pEC50 (SKBR3 cells; 72 hours)
CO[C@H]1/C=C/CCC[S@@](=O)(NC(=O)CCn2ncc3ccccc32)=NC(=O)c2ccc3c(c2)N(C[C@@H]2CC[C@H]21)C[C@@]1(CCCc2cc(Cl)ccc21)CO3 [Example 52]	9.05	5.71	–
CO[C@H]1/C=C/CCC[S@](=O)(NC(=O)N2CCS(=O)(=O)CC2)=NC(=O)c2ccc3c(c2)N(C[C@@H]2CC[C@H]21)C[C@@]1(CCCc2cc(Cl)ccc21)CO3 [Example 74]	8.14	5.00	–
CC#CC(=O)N[S@@]1(=O)=NC(=O)c2ccc3c(c2)N(C[C@@H]2CC[C@H]2[C@@H](OC)/C=C/CCC1)C[C@@]1(CCCc2cc(Cl)ccc21)CO3 [Example 33]	8.54	5.13	–
CO[C@H]1/C=C/C[C@H](C)C[S@@](=O)(NC(=O)c2cc(C)cs2)=NC(=O)c2ccc3c(c2)N(C[C@@H]2CC[C@H]21)C[C@@]1(CCCc2cc(Cl)ccc21)CO3 [Example 434]	9.35	6.39	–
COC(=O)c1cc(C(=O)N[S@@]2(=O)=NC(=O)c3ccc4c(c3)N(C[C@@H]3CC[C@H]3[C@@H](OC)/C=C/C[C@H](C)C2)C[C@@]2(CCCc3cc(Cl)ccc32)CO4)cn1C [Example 358]	9.94	7.02	–
CCC(=O)N[S@@]1(=O)=NC(=O)c2ccc3c(c2)N(C[C@@H]2CC[C@H]2[C@@H](OC)CCCCC1)C[C@@]1(CCCc2cc(Cl)ccc21)CO3 [Example 12]	8.77	–	5.35
CO[C@H]1/C=C/CCC[S@@](=O)(NC(=O)CCc2cccnc2)=NC(=O)c2ccc3c(c2)N(C[C@@H]2CC[C@H]21)C[C@@]1(CCCc2cc(Cl)ccc21)CO3 [Example 40]	10.00	6.48	–
CC[C@@H]1CC/C=C/[C@H](OC)[C@@H]2CC[C@H]2CN2C[C@@]3(CCCc4cc(Cl)ccc43)COc3ccc(cc32)C(=O)N=[S@@]1(=O)NC(=O)CCc1ccnn1C [Example 70]	9.70	–	6.43
CO[C@H]1/C=C/CCC[S@@](=O)(NC(=O)NCc2cnccn2)=NC(=O)c2ccc3c(c2)N(C[C@@H]2CC[C@H]21)C[C@@]1(CCCc2cc(Cl)ccc21)CO3 [Example 80]	9.52	5.98	–
COC1CN(c2nn(C)cc2C(=O)N[S@@]2(=O)=NC(=O)c3ccc4c(c3)N(C[C@@H]3CC[C@H]3[C@@H](OC)/C=C/C[C@H](C)C2)C[C@@]2(CCCc3cc(Cl)ccc32)CO4)C1 [Example 379]	9.08	5.78	–
CO[C@H]1/C=C/C[C@H](C)C[S@@](=O)(NC(=O)NC2CCOCC2)=NC(=O)c2ccc3c(c2)N(C[C@@H]2CC[C@H]21)C[C@@]1(CCCc2cc(Cl)ccc21)CO3 [Example 442]	9.87	6.91	–
CCC(=O)N[S@@]1(=O)=NC(=O)c2ccc3c(c2)N(C[C@@H]2CC[C@H]2[C@@H](OCCN2CCOCC2)/C=C/CCC1)C[C@@]1(CCCc2cc(Cl)ccc21)CO3 (single isomer, unassigned) [Example 67]	8.92	5.98	–
CO[C@H]1/C=C/CCC[S@@](=O)(NC(=O)CCc2ccncc2)=NC(=O)c2ccc3c(c2)N(C[C@@H]2CC[C@H]21)C[C@@]1(CCCc2cc(Cl)ccc21)CO3 [Example 41]	10.00	6.59	–
CO[C@H]1/C=C/C[C@H](C)C[S@@](=O)(NC(=O)c2cn(C)nc2C2CC2)=NC(=O)c2ccc3c(c2)N(C[C@@H]2CC[C@H]21)C[C@@]1(CCCc2cc(Cl)ccc21)CO3 [Example 164]	9.85	6.97	–
CO[C@H]1/C=C/C[C@H](C)C[S@@](=O)(NC(=O)N2C[C@@H](OC)[C@@H]2C)=NC(=O)c2ccc3c(c2)N(C[C@@H]2CC[C@H]21)C[C@@]1(CCCc2cc(Cl)ccc21)CO3 [Example 253]	10.43	7.41	–

Continued, in another order:

pIC50 [1]	pEC50 (SKBR3 cells; Homo sapiens, SK-BR-3, 72 h)	SMILES	pEC50 (SKBR3 cells; 72 hours)
10.04	6.87	CO[C@H]1/C=C/C[C@H](C)C[S@@](=O)(NC(=O)c2cc3n(c2)CCN(C(C)=O)C3)=NC(=O)c2ccc3c(c2)N(C[C@@H]2CC[C@H]21)C[C@@]1(CCCc2cc(Cl)ccc21)CO3 [Example 180]	–
10.49	6.93	COC1CN(C(=O)N[S@@]2(=O)=NC(=O)c3ccc4c(c3)N(C[C@@H]3CC[C@H]3[C@@H](OC)CCC[C@H](C)C2)C[C@@]2(CCCc3cc(Cl)ccc32)CO4)C1 [Example 244]	–
10.14	7.12	CO[C@H]1/C=C/C[C@H](C)C[S@@](=O)(NC(=O)c2cc(C)co2)=NC(=O)c2ccc3c(c2)N(C[C@@H]2CC[C@H]21)C[C@@]1(CCCc2cc(Cl)ccc21)CO3 [Example 203]	–
10.04	6.52	COC1CCn2cc(C(=O)N[S@@]3(=O)=NC(=O)c4ccc5c(c4)N(C[C@@H]4CC[C@H]4[C@@H](OC)/C=C/C[C@H](C)C3)C[C@@]3(CCCc4cc(Cl)ccc43)CO5)nc2C1 (stereo partly shown) [Example 302]	–
10.39	7.31	CO[C@H]1/C=C/C[C@H](C)C[S@@](=O)(NC(=O)N2CCN3CCOC[C@H]3C2)=NC(=O)c2ccc3c(c2)N(C[C@@H]2CC[C@H]21)C[C@@]1(CCCc2cc(Cl)ccc21)CO3 [Example 334]	–
10.16	7.16	COc1nn(C)cc1C(=O)N[S@@]1(=O)=NC(=O)c2ccc3c(c2)N(C[C@@H]2CC[C@H]2[C@@H](OC)/C=C\C[C@H](C)C1)C[C@@]1(CCCc2cc(Cl)ccc21)CO3 [Example 228]	–
10.04	7.01	CO[C@H]1/C=C/C[C@H](C)C[S@@](=O)(NC(=O)N[C@H]2C[C@@](O)(C(F)(F)F)C2)=NC(=O)c2ccc3c(c2)N(C[C@@H]2CC[C@H]21)C[C@@]1(CCCc2cc(Cl)ccc21)CO3 [Example 453]	–
10.37	6.81	COC(=O)N1CC(NC(=O)N[S@@]2(=O)=NC(=O)c3ccc4c(c3)N(C[C@@H]3CC[C@H]3[C@@H](OC)/C=C/C[C@H](C)C2)C[C@@]2(CCCc3cc(Cl)ccc32)CO4)C1 [Example 114]	–
10.21	7.17	CO[C@H]1/C=C/C[C@H](C)C[S@@](=O)(NC(=O)N2CC(CC(F)F)C2)=NC(=O)c2ccc3c(c2)N(C[C@@H]2CC[C@H]21)C[C@@]1(CCCc2cc(Cl)ccc21)CO3 [Example 355]	–
10.40	6.84	CO[C@H]1/C=C/C[C@H](C)C[S@@](=O)(NC(=O)N[C@H]2C[C@H]2CO)=NC(=O)c2ccc3c(c2)N(C[C@@H]2CC[C@H]21)C[C@@]1(CCCc2cc(Cl)ccc21)CO3 (single isomer, unassigned) [Example 365]	–
10.28	6.86	CO[C@H]1/C=C/C[C@H](C)C[S@@](=O)(NC(=O)N[C@H]2C[C@H](OC(=O)N(C)C)C2)=NC(=O)c2ccc3c(c2)N(C[C@@H]2CC[C@H]21)C[C@@]1(CCCc2cc(Cl)ccc21)CO3 [Example 360]	–
10.00	6.91	CO[C@H]1/C=C/C[C@H](C)C[S@@](=O)(NC(=O)c2cn(C)nc2Cl)=NC(=O)c2ccc3c(c2)N(C[C@@H]2CC[C@H]21)C[C@@]1(CCCc2cc(Cl)ccc21)CO3 [Example 126]	–
10.46	7.34	CO[C@H]1/C=C/C[C@H](C)C[S@@](=O)(NC(=O)[C@H]2C[C@@](C)(O)C2)=NC(=O)c2ccc3c(c2)N(C[C@@H]2CC[C@H]21)C[C@@]1(CCCc2cc(Cl)ccc21)CO3 [Example 165]	–
10.13	7.05	CO[C@H]1/C=C/C[C@H](C)C[S@@](=O)(NC(=O)C2CC3(CCOC3)C2)=NC(=O)c2ccc3c(c2)N(C[C@@H]2CC[C@H]21)C[C@@]1(CCCc2cc(Cl)ccc21)CO3 (stereo partly shown) [Example 125]	–
